Earlier results as cited in US6576256B2, “Treatment of patients at elevated cardiovascular risk with a combination of a cholesterol-lowering agent, an inhibitor of the renin-angiotensin system, and aspirin” (priority 2001, dated 2003).

Tests used:
[1] = test system: patients at risk for cardiovascular events; details: daily administration of low doses (approximately 80 mg)
blood pressure = details: relative to angiotensin II

Compound | reduction of second heart attacks, strokes, and cardiovascular deaths [1] | hypertensive activity as share of that of angiotensin II (blood pressure)
CC(=O)Oc1ccccc1C(=O)O [aspirin, acetylsalicylic acid] | at least 25% | –
angiotensin I (DRVYIHPFHL; Angiotensin-1; UniProt P01019 25-34, looked up) [decapeptide formed by renin acting on angiotensinogen] | – | about 1%
